Data published in paper PMC11727334, “A self-immolative Kdn-glycoside substrate enables high-throughput screening for inhibitors of Kdnases” (Glycobiology, 2024).
“Also recorded” adds a separate entry of the source. Like-named read-outs stand apart in the source and are kept apart here.

Columns and labels:
[1] = molecular target: T1, Kdnase produced by A. fumigatus (AfK) (Aspergillus fumigatus, UniProt Q4WQS0); experiment: Inhibition assay of recombinant AfK using 4MU-Kdn as substrate; type: biochemical
T1 construct: AfK was expressed and purified as described by Telford et al; made in house
T1 sequence (Q4WQS0 21-406): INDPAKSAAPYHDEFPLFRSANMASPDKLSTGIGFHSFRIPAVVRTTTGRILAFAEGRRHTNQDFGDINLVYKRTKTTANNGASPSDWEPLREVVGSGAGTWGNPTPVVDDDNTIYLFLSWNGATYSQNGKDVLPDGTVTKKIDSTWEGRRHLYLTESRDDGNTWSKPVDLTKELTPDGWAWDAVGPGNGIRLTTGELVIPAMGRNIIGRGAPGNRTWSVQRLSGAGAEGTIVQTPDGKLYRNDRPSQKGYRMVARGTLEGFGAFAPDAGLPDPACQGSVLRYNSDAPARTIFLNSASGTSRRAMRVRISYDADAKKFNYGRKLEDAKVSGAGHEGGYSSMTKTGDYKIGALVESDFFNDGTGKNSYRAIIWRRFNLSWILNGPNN
Source text: (§1) We purchase fresh commercial material for compounds 13 and 14 and performed inhibition assays using recombinant AfK (Methods, Fig. S8, Supporting Information). We determined IC50 values in quadruplicate using 4MU-Kdn as the substrate ([Yeung et al. 2013]). […] We submitted both compounds to a pan-assay interference compounds (PAINS) filter, a compilation of chemical substructures known to show promiscuous biological activities ([Baell and Nissink 2018]). […] We performed standard inhibition assays as described earlier using inhibitor 13 and these recombinant enzymes. […] We also tested inhibitor 13 with the sialidase MvNA, the closest structural homologue to AfK, that is known to cleave a multitude of substrates including Kdn glycosides ([Telford et al. 2011]).
(§2) Each 200 μM reaction mixture was incubated at rt for 2 min prior to the addition of purified sialidase. Inhibitor was added to the reaction mixture and allowed to incubate at rt between 0–60 min in 100 mM sodium acetate buffer pH 4.0 and 0.01% BSA prior to the addition of substrate. The kinetic parameters were determined from initial rate measurements using a substrate concentration of Km/4. The progress of the reaction was continuously monitored for 15 min using a fluorescence spectrophotometer (BioTek Neo 2) and excitation and emission wavelengths of 360 and 450 nm, respectively.

AfK [2] = molecular target: T2, AfK (Aspergillus fumigatus, UniProt Q4WQS0); experiment: HTS assay of AfK activity using Kdn glycoside 4 (384-well, stop solution); type: biochemical; settings: TargetMol library pilot screen
T2 construct: AfK was expressed and purified as described by Telford et al; made in house
T2 sequence (Q4WQS0 21-406): as above
Procedure: We next miniaturized our assay for use in a 384-well microplate format by optimizing the quantity of detergent and checking for fluorescent signal stability (Figs 2A,S6 and S7 Supporting Information). In each well, we added a solution of buffer containing AfK (50 nM) and then added a library compound using a pin tool. We included both detergent (0.2% (v/v) Tween-20) and BSA (0.01% BSA) to reduce false positives arising from aggregation prone compounds ([Feng et al. 2007]). We then equilibrated the mixture prior to the addition of substrate 4, and the resultant solution was incubated for 1 h after which stop solution was added. To ensure cyclization was complete, the mixture was allowed to react for 1 h prior to measuring the fluorescence. Candidate hits identified in this primary screen were cherry picked and delivered into a gold plate that was used to confirm hits.
To each well in a 384-well microplate, enzyme (20 μL of a 50 nM stock solution) in reaction buffer (100 mM NaOAc, 0.2% Tween-20, 0.01% BSA, pH 4) was added to a library compound (200 nL of 20 μM TargetMol, 10 μM Chembridge), and this mixture was incubated at rt for 1 h. Then, substrate 4 (20 μL of a 50 μM stock) was added and the resultant mixture was incubated at rt for an additional 1 hr. Following addition of stop solution (40 μL of 1 M aqueous K2CO3, pH ≈ 12) to the mixture the plate was incubated for 1 h at rt. Next, the fluorescence for each well was measured (BioTek Neo 2) using an excitation and an emission wavelength of 360 and 450 nm, respectively. The collected data was analyzed using Prism 7.0. We used the known mechanism-based inactivator 2,3-diF-Kdn (3) as the positive control ([Watts et al. 2006]; [Khazaei et al. 2015]). That is, using 2,3-diFKdn at a concentration of 30 μM, following a 10 min incubation, gives a background signal that equates to >90% inhibition.

[3] = molecular target: Aspergillus terreus Kdnase (AtK) (Aspergillus terreus, UniProt Q0CMX0); experiment: Inhibition assay of recombinant AtK using Kdn4MU as substrate; type: biochemical; settings: Table 1
Aspergillus terreus Kdnase (AtK), sequence (Q0CMX0 entry or part of it): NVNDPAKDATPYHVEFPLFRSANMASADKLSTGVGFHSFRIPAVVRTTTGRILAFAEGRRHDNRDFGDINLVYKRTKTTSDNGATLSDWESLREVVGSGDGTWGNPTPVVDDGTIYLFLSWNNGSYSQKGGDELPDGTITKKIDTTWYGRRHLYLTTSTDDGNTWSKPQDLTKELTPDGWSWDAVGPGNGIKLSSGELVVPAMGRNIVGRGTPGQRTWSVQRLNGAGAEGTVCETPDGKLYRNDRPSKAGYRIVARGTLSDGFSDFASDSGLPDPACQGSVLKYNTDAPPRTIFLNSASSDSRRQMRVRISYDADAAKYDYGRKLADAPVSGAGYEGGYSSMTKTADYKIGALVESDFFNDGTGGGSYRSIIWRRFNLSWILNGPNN
Source text: as §1, §2

AfK [4] = molecular target: T2, AfK; experiment: Differential scanning fluorimetry (DSF) thermal shift assay, AfK; type: binding; settings: for effect on thermal stability of the folded enzyme (DSF, in words): AfK; for protein melting temperature (DSF, Table S3): inhibitor 500 µM, 100 mM pH 4.0 NaOAc, 5–10 µM enzyme; for ΔTm at 500 µM: read-out: Thermal shift (ΔTm) relative to DMSO (2.5%) control
Source text: (§3) We next used a separate biophysical technique, differential scanning fluorimetry (DSF), to confirm that these compound bind to the various Kdnases. Specifically, we measured protein melting temperatures in the presence of Kdn2en (2) and candidate ligands 13 and 17 (Fig. 3D). […] We repeated this DSF assay on AtK and TrK and we observed similar trends in thermal shifts (Fig. S14 and Tables S2,S3 and S4, Supporting Information). […] Accordingly, further follow up on this compound would need to be pursued with an awareness of this possibility.
(§4) Table S3. Differential scanning fluorometry-based (DSF) assay for inhibitors 2, 13, and 17 binding to Af, At, Tr and MvNA. Protein thermal shifts(ΔTm) using DMSO (2.5%), and inhibitors 2, 13, and 17 at 500 µM against the Kdnase of Af, At, Tr and MvNA. Assay done using 5–10 µM enzyme and 100 mM pH 4.0 NaOAc (pH 5.5 MvNA). A temperature range of 25°C to 95°C was used with a gradient of 0.05°C/sec. […]
(§5) Table S4. Thermal shifts (ΔTm) for stabilization of AfK, AtK, TrK and MvNA on inhibitor binding relative to the DMSO (2.5%) control. […]

neuraminidase MvNA = neuraminidase MvNA (Micromonospora viridifaciens, UniProt Q02834); experiment: Inhibition assay of the sialidase MvNA using Kdn4MU as substrate; type: biochemical
neuraminidase MvNA, sequence (Q02834 38-647): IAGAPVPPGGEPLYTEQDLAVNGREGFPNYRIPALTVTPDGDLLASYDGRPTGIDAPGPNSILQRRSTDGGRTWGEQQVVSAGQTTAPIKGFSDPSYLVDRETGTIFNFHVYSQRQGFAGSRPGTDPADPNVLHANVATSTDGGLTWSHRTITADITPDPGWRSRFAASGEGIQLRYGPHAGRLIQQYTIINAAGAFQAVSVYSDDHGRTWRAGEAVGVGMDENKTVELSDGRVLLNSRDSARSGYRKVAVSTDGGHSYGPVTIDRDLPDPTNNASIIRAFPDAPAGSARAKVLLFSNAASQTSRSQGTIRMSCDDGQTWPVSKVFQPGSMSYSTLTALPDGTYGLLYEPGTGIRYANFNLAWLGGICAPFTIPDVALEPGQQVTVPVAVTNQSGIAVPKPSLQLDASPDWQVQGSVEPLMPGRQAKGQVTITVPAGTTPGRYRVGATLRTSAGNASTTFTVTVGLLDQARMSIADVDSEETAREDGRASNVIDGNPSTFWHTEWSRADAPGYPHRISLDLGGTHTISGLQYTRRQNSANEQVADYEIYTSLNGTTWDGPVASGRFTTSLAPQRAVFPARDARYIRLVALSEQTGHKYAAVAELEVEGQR
Source text: as §1
as §2, with “Inhibitor was added to the reaction mixture and allowed to incubate at rt between 0–60 min in 100 mM sodium acetate buffer pH 4.0 and 0.01% BSA prior to the addition of substrate.” left out

[5] = molecular target: Trichophyton rubrum Kdnase (TrK) (Trichophyton rubrum, UniProt A0A178EUH2); experiment: Inhibition assay of recombinant TrK using Kdn4MU as substrate; type: biochemical; settings: Table 1
Trichophyton rubrum Kdnase (TrK), sequence (A0A178EUH2 entry or part of it): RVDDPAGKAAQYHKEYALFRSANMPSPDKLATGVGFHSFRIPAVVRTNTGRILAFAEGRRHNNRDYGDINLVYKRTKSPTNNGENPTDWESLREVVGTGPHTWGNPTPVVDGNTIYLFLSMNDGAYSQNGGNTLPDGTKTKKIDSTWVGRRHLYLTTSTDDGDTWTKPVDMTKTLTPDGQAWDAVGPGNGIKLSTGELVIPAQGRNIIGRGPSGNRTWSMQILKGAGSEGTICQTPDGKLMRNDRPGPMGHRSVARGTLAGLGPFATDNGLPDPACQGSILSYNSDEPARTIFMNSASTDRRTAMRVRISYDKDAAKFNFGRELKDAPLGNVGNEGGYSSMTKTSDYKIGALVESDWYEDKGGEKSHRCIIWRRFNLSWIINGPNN
Source text: as §1, §2

TrK = experiment: Differential scanning fluorimetry (DSF) thermal shift assay, TrK; type: binding, Trichophyton rubrum; settings: for Thermal shift (ΔTm) relative to DMSO (2.5%) control: Table S4; for Thermal shift (ΔTm) relative to DMSO (2.5%) control / protein melting temperature (DSF, Table S3): inhibitor 500 µM; for protein melting temperature (DSF, Table S3): 100 mM pH 4.0 NaOAc, 5–10 µM enzyme
Source text: as §3, §4, §5

AtK = experiment: Differential scanning fluorimetry (DSF) thermal shift assay, AtK; type: binding, Aspergillus terreus; settings: for Thermal shift (ΔTm) relative to DMSO (2.5%) control: Table S4; for Thermal shift (ΔTm) relative to DMSO (2.5%) control / protein melting temperature (DSF, Table S3): inhibitor 500 µM; for protein melting temperature (DSF, Table S3): 100 mM pH 4.0 NaOAc, 5–10 µM enzyme
Source text: as §3, §4, §5

MvNA = MvNA (Micromonospora viridifaciens, UniProt Q02834); experiment: Differential scanning fluorimetry (DSF) thermal shift assay, MvNA; type: binding; settings: inhibitor 500 µM; for ΔTm at 500 µM: Table S4, read-out: Thermal shift (ΔTm) relative to DMSO (2.5%) control; for protein melting temperature (DSF, Table S3): pH 5.5, 5–10 µM enzyme
MvNA, sequence (Q02834 38-647): as the sequence (Q02834 38-647) above
Procedure: as §4, §5

[6] = molecular target: T1, Kdnase produced by A. fumigatus (AfK); design: method as in Telford et al. (3); settings: Table S2; ref Telford et al. (3); cited from earlier work
[7] = Table S2, values from this work
[8] = 37 °C, Kdn4MU substrate, NaOAc 100 mM pH 4.0, 0.01% BSA, read-out: IC50
[9] = calculated Ki = IC50/(([S]/Km) + 1)

Structure (SMILES): O=C(O)/C=C/c1ccc(O)c(O)c1 [caffeic acid, reference compound]
- IC50 ([1]; Fig. S10, read-out: IC50): ~500 µM

Structure (SMILES): CC(C)(C)c1cc(C=C(C#N)C#N)cc(C(C)(C)C)c1O [compound 14, Tyrphostin A9, reference compound]
- IC50 [1]: 65.8 ± 1.7 µM
- Ki [1]: 58.4 µM
- mode of inhibition (Lineweaver-Burk plots) ([1]; AfK): competitive inhibitors
- Hill [1, 7]: –0.92
- inhibitory activity verified in repeat assay of HTS hits (AfK [2]): inhibit AfK

Structure (SMILES): O=C1NC[C@@]2(C(=O)O)CN(Cc3ccc(C4CCCCC4)s3)C[C@@H]12 [compound 17]
- IC50 [3, 8]: 50 ± 1.2 µM
- Hill coefficient ([3]; 37 °C, pH 4.0): −0.88
- Ki [3, 9]: 38.5 µM
- effect on thermal stability of the folded enzyme (DSF, in words) (AfK [4]): stabilizes all three Kdnases; also recorded: positive unfolding temperature shifts
- protein melting temperature (DSF, Table S3) (AfK [4]): 54.6 ± 0.1 °C
- ΔTm at 500 µM (AfK [4]): 3.1 °C
- IC50 (neuraminidase MvNA): 6.6 ± 0.6 µM
- Hill coefficient (neuraminidase MvNA; Table 1, 37 °C, pH 5.5): −0.89
- IC50 [5, 8]: 93.3 ± 0.8 µM
- Hill coefficient ([5]; 37 °C, pH 4.0): −1.11
- Ki [5, 9]: 73.3 µM
- Thermal shift (ΔTm) relative to DMSO (2.5%) control (TrK): +16.2 ± 0.1 °C
- effect on thermal stability of the folded enzyme (DSF, in words) (TrK; TrK): stabilizes all three Kdnases
- protein melting temperature (DSF, Table S3) (TrK): 50.9 ± 0.1 °C
- mode of inhibition (Lineweaver-Burk plots) ([1]; AfK): competitive inhibitor
- fold lower IC50 value than that reported for Kdn2en 2 ([1]; AfK, Kdn2en value from Yeung et al. 2013): 5 fold
- IC50 ([1]; Table 1, 37 °C, Kdn4MU substrate, NaOAc 100 mM pH 4.0, 0.01% BSA, read-out: IC50): 115 ± 2 µM
- Hill coefficient ([1]; Table 1, 37 °C, pH 4.0): −0.81
- Ki ([1]; Table 1, calculated Ki = IC50/(([S]/Km) + 1), read-out: Ki): 74.7 µM
- IC50 ([1]; Table S2, Kdn4MU substrate, sodium acetate 100 mM pH 4.0, 0.01% BSA, 37 C, values from this work, read-out: IC50): 115 ± 2 µM
- Hill [1, 7]: –0.81
- inhibition of AfK in standard inhibition assay ([1]; purchased compounds, 4MU-Kdn 1 as substrate): inhibited AfK
- effect on thermal stability of the folded enzyme (DSF, in words) (AtK; AtK): stabilizes all three Kdnases
- Thermal shift (ΔTm) relative to DMSO (2.5%) control (AtK): +3.5 ± 0.1 °C
- protein melting temperature (DSF, Table S3) (AtK): 55.4 ± 0.1 °C
- ΔTm at 500 µM (MvNA): 5.2 °C
- protein melting temperature (DSF, Table S3) (MvNA): 59.1 ± 0.1 °C

Structure (SMILES): O=C(O)C1=C[C@H](O)[C@@H](O)[C@H]([C@H](O)[C@H](O)CO)O1 [compound 2, Kdn2en, reference compound]
- effect on thermal stability of the folded enzyme (DSF, in words) (AfK [4]): positive unfolding temperature shifts
- protein melting temperature (DSF, Table S3) (AfK [4]): 53.2 ± 0.1 °C
- ΔTm at 500 µM (AfK [4]): 1.7 °C
- Thermal shift (ΔTm) relative to DMSO (2.5%) control (TrK): +15.0 ± 0.2 °C
- protein melting temperature (DSF, Table S3) (TrK): 49.7 ± 0.2 °C
- IC50 [6]: 556 µM
- Ki [6]: 102 µM
- Thermal shift (ΔTm) relative to DMSO (2.5%) control (AtK): +3.4 ± 0.1 °C
- protein melting temperature (DSF, Table S3) (AtK): 55.3 ± 0.1 °C
- ΔTm at 500 µM (MvNA): 0.5 °C
- protein melting temperature (DSF, Table S3) (MvNA): 54.4 ± 0.1 °C
